Our source for the GI50 and TGI values is PubChem BioAssay (NCI).

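Method: 48-hour compound exposure of cells in 96-well plates, five concentrations, linear interpolation of endpoints. GI50 = concentration required for 50% inhibition of growth. TGI: total growth inhibition.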

Assay in all cases: growth of human tumour cells (NCI), 48 h
The subject of test [1] is BT-549 breast.
For test [2], the system named is CCRF-CEM leukemia.
In test [3] the test system is EKVX NSCLC.
The test system of test [4] is KM12 colon.
Test [5] concerns OVCAR-4 ovarian.
Test [6] relates to PC-3 prostate.
In test [7] the test system is RPMI-8226 leukemia.
Test [8] has as its system SNB-19 CNS.
Test [9] concerns U251 CNS.
For test [10], the system named is UACC-257 melanoma.

`CC/C=C\C[C@H]1C/C=C2/C(=O)C(Cl)=C[C@@H]2C/C=C\CCCC(=O)O1`: the GI50 is 0.524 µM in test [1]; 0.143 µM in [2]; 0.805 µM in test [3]; 0.403 µM in [4]; 0.952 µM in [5]; 0.346 µM in test [6]. For the same compound, the results for the GI50 in test [7], in test [8] and in [9] were 0.0819 µM, 0.665 µM and 0.214 µM, respectively. Besides, the TGI in test [1] was 1.21 µM; in [2], 2.64 µM; in [3] it was 4.62 µM; in [4] it was 1.07 µM; in [5], 4.9 µM; in test [6], 0.986 µM. The TGI in [7] stood at 0.492 µM; in test [8] it was 3.54 µM; in [9] it was 0.694 µM.
With `C(=N\Nc1ccc2ccccc2n1)/c1ccccn1`, the GI50 in test [1] was 1.1 µM; in test [2], 0.371 µM; in [3] it was 0.37 µM; in [4], 0.458 µM; in test [5], 0.363 µM; in [6], 0.825 µM. For the same compound, the GI50 in [7] was 0.513 µM; in test [8], 0.921 µM; in [9] it was 0.413 µM. The TGI in test [1] is above 38.9 µM; in [2], above 100 µM; in [3], above 32.9 µM; in test [4] it was 16.2 µM; in test [5], above 100 µM; in test [6], 73 µM. The TGI is 15.7 µM in [7], above 100 µM in test [8] and above 55 µM in test [9].
Turning to `CCc1c(C)c2cc(-n3c(-c4ccc(OC)cc4)csc3=N)c(O)c(C)c2oc1=O`, the GI50 in test [1] is 1 µM; in [2], 1.54 µM; in test [3] it was 1.24 µM; in [4] it was 1.32 µM; in [5], 1.52 µM; in test [6], 0.752 µM. Besides, the results for the GI50 in [8], in test [9] and in test [10] were 2.36 µM, 1.77 µM and 3.15 µM, respectively. In addition, the TGI is 5.02 µM in test [1]; above 100 µM in [2]; 11.1 µM in test [3]; 8.37 µM in [4]; 4.43 µM in test [5]; above 100 µM in [6]. The TGI in test [8] stood at 8.86 µM; in test [9] it was 6.09 µM; in test [10], 14.2 µM.
Regarding `CC1(C)C(=O)/C=C\C(=O)C(C)(C)C(=O)/C=C\C(=O)C(C)(C)C2=CC=C(O2)C(C)(C)C(=O)/C=C\C1=O`, the TGI in test [1] came to 24.2 µM; in test [3], 11.6 µM; in test [4], 19.8 µM; in test [5], 14.8 µM; in test [6] it was 29.2 µM; in test [7], 3.17 µM. The values for the TGI in test [8], in test [9] and in test [10] were 30.6 µM, 30.4 µM and 16.6 µM, respectively.
Turning to `CC1=C[C@@H]2c3c(c(O)c(O)c4oc5cc(O)cc(O)c5c(=O)c34)[C@@H](c3cc(O)c(O)c4oc5cc(O)cc(O)c5c(=O)c34)[C@@H]2C(C)(C)C1`, the GI50 is 3.68 µM in [1]; 5 µM in test [3]; 3.1 µM in [4]; 3.26 µM in test [5]; 3.33 µM in test [6]; 1.96 µM in [7]. Further, the GI50 was 2.76 µM in test [8], 2.34 µM in test [9] and 9.65 µM in test [10]. Besides, the TGI came to 19.8 µM in [1]; 15.6 µM in [3]; 12.2 µM in [4]; 14.7 µM in test [5]; 14 µM in [6]; 10.3 µM in [7]. Moreover, the TGI in test [8] came to 13 µM; in [9], 13.9 µM; in test [10], 24.5 µM.
For `CSc1nc(SC)c2c(C)cn(COCCOC(=O)c3ccccc3)c2n1`, the TGI in test [1], in [2], in test [3], in test [4], in test [5] and in test [6] was above 100 µM throughout. Besides, the TGI in test [7], in test [8] and in test [9] was above 100 µM in each case.
Take `COc1cc(-c2ccc[nH]2)[nH]c1/C=C1\N=C(C)C(CC(=O)OCC(C)(C)C)=C1C`: the GI50 is 0.286 µM in [1]; 0.0625 µM in test [2]; 0.0903 µM in test [3]; 0.267 µM in test [4]; 0.331 µM in test [5]; 0.1 µM in test [6]. The GI50 in test [8] is 0.468 µM; in test [9], 0.141 µM; in [10], 0.339 µM. In addition, the TGI in test [1] was found to be 1.87 µM; in [2] it was 2.12 µM; in test [3], 1.7 µM; in test [4] it was 1.76 µM; in test [5], 2.06 µM; in [6], 1.65 µM. Further, the TGI was found to be 2.51 µM in test [8], 1.23 µM in test [9] and 1.52 µM in test [10].
For the compound `O=C(C(=CN1CCN(C(=O)c2ccco2)C1=S)C(=O)c1ccccc1)c1ccccc1`, the GI50 is 9.96 µM in [1]; 8.06 µM in test [3]; 2.31 µM in test [4]; 16.1 µM in test [5]; 23.6 µM in [6]; 8.41 µM in test [7]. The GI50 was 29.2 µM in test [8], 2.66 µM in test [9] and 11.7 µM in test [10]. The TGI was 26.4 µM in test [1]; 21.4 µM in test [3]; 11.5 µM in test [4]; 42.8 µM in test [5]; above 50 µM in test [6]; above 50 µM in test [7]. For the same compound, the TGI was above 50 µM in test [8], 25.8 µM in test [9] and 21.4 µM in test [10].
